According to PubChem BioAssay AID256 (DTP/NCI, 2004):
Toxic doses and inconclusive results are not listed. The calls were made as follows: active = survival T/C of 150% or more; inactive = T/C below 125% in these data.

System: CD2F1 mice, L1210 leukemia ip, survival T/C
Assay: NCI In Vivo Anticancer Drug Screen. Data for tumor model L1210 Leukemia (intraperitoneal) in CD2F1 (CDF1) mice
Conditions: endpoint: mean survival time, higher = longer survival
Outline: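 Antitumor effect is scored in animals hosting a serially transplanted tumor. Values compare compound-dosed animals against vehicle-only controls as a simple quotient.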

[1] = dose: 100.0 mg/kg/injection, schedule: Q01DX009 (ip), vehicle: saline with Tween-80
[2] = dose: 200.0 mg/kg/injection, schedule: Q01DX009 (ip), vehicle: saline with Tween-80

Measured: T/C

O=C(O)C1(Br)CCC1
inactive: dose: 12.5 mg/kg/injection, schedule: Q01DX005 (ip), vehicle: saline with Tween-80 89 % of control | dose: 12.5 mg/kg/injection, schedule: Q01DX009 (ip), vehicle: saline 100 % of control | dose: 25.0 mg/kg/injection, schedule: Q01DX005 (ip), vehicle: saline with Tween-80 101 % of control | dose: 25.0 mg/kg/injection, schedule: Q01DX009 (ip), vehicle: saline 89 % of control | dose: 50.0 mg/kg/injection, schedule: Q01DX005 (ip), vehicle: saline with Tween-80 108 % of control | dose: 50.0 mg/kg/injection, schedule: Q01DX009 (ip), vehicle: saline 93 % of control | dose: 50.0 mg/kg/injection, schedule: Q04DX002 (ip), vehicle: saline with Tween-80 97 % of control | dose: 100.0 mg/kg/injection, schedule: Q01DX005 (ip), vehicle: saline with Tween-80 97 % of control | dose: 100.0 mg/kg/injection, schedule: Q01DX009 (ip), vehicle: saline 89 % of control | dose: 100.0 mg/kg/injection, schedule: Q04DX002 (ip), vehicle: saline with Tween-80 94 % of control

Cc1cnc(Br)c(Br)c1
inactive: dose: 100.0 mg/kg/injection, schedule: Q01DX001 (ip), vehicle: saline with Tween-80 101 % of control | [1] 110 % of control | dose: 200.0 mg/kg/injection, schedule: Q01DX001 (ip), vehicle: saline with Tween-80 101 % of control | [2] 100 % of control | dose: 400.0 mg/kg/injection, schedule: Q01DX001 (ip), vehicle: saline with Tween-80 103 % of control | dose: 400.0 mg/kg/injection, schedule: Q01DX009 (ip), vehicle: saline with Tween-80 100 % of control

CCCCCC(O)/C=C/Sc1n[nH]c(=O)[nH]c1=O (configuration not stated)
inactive: dose: 12.5 mg/kg/injection, schedule: Q01DX005 (ip), vehicle: distilled water + Tween-80 104 % of control | dose: 25.0 mg/kg/injection, schedule: Q01DX005 (ip), vehicle: distilled water + Tween-80 94 % of control | dose: 50.0 mg/kg/injection, schedule: Q01DX005 (ip), vehicle: distilled water + Tween-80 98 % of control | dose: 100.0 mg/kg/injection, schedule: Q01DX005 (ip), vehicle: distilled water + Tween-80 90 % of control | dose: 200.0 mg/kg/injection, schedule: Q01DX005 (ip), vehicle: distilled water + Tween-80 93 % of control

CNC(=O)Cc1ccc2cc(OC)c(OC)cc2c1
inactive: [1] 100 % of control | [2] 102 % of control

Nc1ncnc(N)c1NC(=O)c1ccc(OCCOc2ccccc2)c(Cl)c1
inactive: dose: 200.0 mg/kg/injection, schedule: Q04DX003 (ip), vehicle: saline with Tween-80 88 % of control

COc1ccc(CCN2C(=O)C=CC2=O)cc1OC
inactive: dose: 5.0 mg/kg/injection, schedule: Q01DX001 (ip), vehicle: saline 94 % of control | dose: 5.0 mg/kg/injection, schedule: Q01DX009 (ip), vehicle: saline 94 % of control | dose: 10.0 mg/kg/injection, schedule: Q01DX001 (ip), vehicle: saline 94 % of control | dose: 10.0 mg/kg/injection, schedule: Q01DX009 (ip), vehicle: saline 97 % of control | dose: 20.0 mg/kg/injection, schedule: Q01DX001 (ip), vehicle: saline 91 % of control

NC(CSS(=O)(=O)O)=NCCCCN=C(N)CSS(=O)(=O)O
inactive: dose: 6.25 mg/kg/injection, schedule: Q04DX002 (ip), vehicle: saline with Tween-80 103 % of control | dose: 12.5 mg/kg/injection, schedule: Q04DX002 (ip), vehicle: saline with Tween-80 106 % of control | dose: 25.0 mg/kg/injection, schedule: Q04DX002 (ip), vehicle: saline with Tween-80 95 % of control

O=C1NCCN1c1ccc([N+](=O)[O-])cc1
inactive: dose: 12.5 mg/kg/injection, schedule: Q01DX009 (ip), vehicle: other 89 % of control | dose: 25.0 mg/kg/injection, schedule: Q01DX009 (ip), vehicle: other 103 % of control | dose: 50.0 mg/kg/injection, schedule: Q01DX009 (ip), vehicle: other 94 % of control | dose: 100.0 mg/kg/injection, schedule: Q01DX009 (ip), vehicle: other 96 % of control | dose: 200.0 mg/kg/injection, schedule: Q01DX009 (ip), vehicle: other 96 % of control
